Laboratory results as given in ChEMBL document CHEMBL1154077, “Carbonic anhydrase inhibitors. Inhibition studies of a coral secretory isoform by sulfonamides” (Bioorg Med Chem, 2009).

Target: T1, Alpha carbonic anhydrase (Stylophora pistillata, UniProt B5SU02)
T1 sequence (B5SU02 whole entry): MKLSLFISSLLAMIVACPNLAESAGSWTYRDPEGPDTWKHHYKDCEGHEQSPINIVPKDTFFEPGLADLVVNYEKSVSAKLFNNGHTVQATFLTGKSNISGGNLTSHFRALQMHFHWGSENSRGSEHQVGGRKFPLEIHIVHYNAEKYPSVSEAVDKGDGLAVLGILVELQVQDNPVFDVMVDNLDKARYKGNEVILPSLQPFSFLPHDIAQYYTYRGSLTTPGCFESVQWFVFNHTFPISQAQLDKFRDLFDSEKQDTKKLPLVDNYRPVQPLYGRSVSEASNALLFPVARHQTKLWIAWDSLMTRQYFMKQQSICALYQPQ
Description: Inhibition of cloned Stylophora pistillata alpha-CA expressed in human HEK293 cells by stopped-flow CO2 assay

| SMILES | Ki [nM] |
| --- | --- |
| NS(=O)(=O)c1ccc(CO)cc1 | 768 |
| NS(=O)(=O)c1ccc(S(=O)(=O)Nc2cccc3c(Cl)c[nH]c23)cc1 | 163 |
| Nc1ccc(S(N)(=O)=O)cc1Cl | 87.5 |
| Cn1nc(S(N)(=O)=O)sc1=N | 91.9 |
| Nc1cc(C(F)(F)F)c(S(N)(=O)=O)cc1S(N)(=O)=O [2,4-DISULFAMYLTRIFLUOROMETHYLANILINE] | 367 |
| Cc1ccc(-c2cc(C(F)(F)F)nn2-c2ccc(S(N)(=O)=O)cc2)cc1 [CELECOXIB] | 34.2 |
| CCN[C@H]1CN(CCCOC)S(=O)(=O)c2sc(S(N)(=O)=O)cc21 [BRINZOLAMIDE] | 48.2 |
| Nc1ccc(S(N)(=O)=O)cc1F | 75.1 |
| NS(=O)(=O)c1ccc(CCO)cc1 | 770 |
| Nc1ccc(S(=O)(=O)Nc2nnc(S(N)(=O)=O)s2)cc1 | 27.6 |
| NNc1ccccc1S(N)(=O)=O | 2510 |
| Nc1ccc(S(N)(=O)=O)cc1Br | 104 |
| NCc1ccc(S(N)(=O)=O)cc1 [MAFENIDE] | 82.5 |
| Nc1nccc(Nc2ccc(S(N)(=O)=O)cc2)n1 | 25.4 |
| Nc1ccc(S(N)(=O)=O)cc1I | 88.3 |
| NCCc1ccc(S(N)(=O)=O)cc1 | 94.3 |
| Nc1cc(Cl)c(S(N)(=O)=O)cc1S(N)(=O)=O | 295 |
| CC1(C)O[C@@H]2[C@@H](CO[C@@]3(COS(N)(=O)=O)OC(C)(C)O[C@@H]23)O1 [TOPIRAMATE] | 29.1 |
| NS(=O)(=O)c1ccc(C(=O)O)cc1 [CARZENIDE] | 435 |
| NS(=O)(=O)c1nnc(NS(=O)(=O)c2ccccc2)s1 [BENZOLAMIDE] | 20.4 |
| Nc1nnc(S(N)(=O)=O)s1 | 105 |
| Cc1ccc(S(N)(=O)=O)cc1 [P-TOLUENESULFONAMIDE] | 614 |
| Nc1ccc(S(=O)(=O)NCc2ccc(S(N)(=O)=O)cc2)cc1 | 29.8 |
| Nc1ccc(S(N)(=O)=O)cc1 [SULFANILAMIDE] | 364 |
| Nc1ccc(S(=O)(=O)NCCc2ccc(S(N)(=O)=O)cc2)cc1 | 19.7 |
| O=C1NS(=O)(=O)c2ccccc21 [SACCHARIN] | 40.3 |
